In brackets after ≈: the same amount, converted by molar mass.
Assays:
[1] = test system: Candida albicans (ATCC 10231); assay: Anticandidal broth microdilution assay; format: cell-based; conditions: ATCC10231, RPMI, 37 °C, 24 h
Experimental: (§1) Anticandidal activity assay was performed against Candida albicans (ATCC 10231), Candida utilis (NRRLY 900), Candida tropicalis (NRRLY 12968), Candida krusei (NRRLY 7179), Candida parapsilosis (NRRLY 12696) and Candida glabrata (ATCC 2001) standard strains according to the CSLI method.
(§2) The minimum inhibitory concentration (MIC, µg/mL) values against pathogenic Candida strains were determined by a broth microdilution method using a 96-well plate format. Compounds 1–14 and fluconazole as a standard control were first dissolved in dimethyl sulfoxide (DMSO) (25%) at an initial concentration of 2000 µg/mL.
(§3) All Candida strains were inoculated on Potato Dextrose Agar (PDA) prior the experiments at 37 °C. After the incubation, sufficiently grown microorganisms were inoculated in sterile saline (0.85%), and then standardized according to the turbidity to 5 × 10^3 CFU (McFarland No: 0.5) per well in RPMI medium under sterile conditions. Serial dilutions were prepared in 100 µL RPMI medium with an equal amount of the test samples, and 100 µL each microorganism suspension was pipetted into each well and incubated at 37 °C for 24 h. Positive growth controls (to assess the presence of turbidity) were performed in wells without the test samples, whereas the negative growth control (medium) was also evaluated. MIC was deﬁned as the lowest concentration without any visible growth of the yeast when compared with the growth in the control plate. All experiments were performed in duplicate.

[2] = test system: Candida glabrata (ATCC 2001); assay: Anticandidal broth microdilution assay; format: cell-based; conditions: Nakaseomyces glabratus, ATCC2001, RPMI, 37 °C, 24 h
Experimental: as §1, §2, §3

[3] = test system: Candida krusei (NRRLY 7179); assay: Anticandidal broth microdilution assay; format: cell-based; conditions: Pichia kudriavzevii, RPMI, 37 °C, 24 h
Experimental: as §1, §2, §3

[4] = test system: Candida parapsilosis (NRRLY 12696); assay: Anticandidal broth microdilution assay; format: cell-based; conditions: Lodderomyces parapsilosis, RPMI, 37 °C, 24 h
Experimental: as §1, §2, §3

[5] = test system: Candida tropicalis (NRRLY 12968); assay: Anticandidal broth microdilution assay; format: cell-based; conditions: RPMI, 37 °C, 24 h
Experimental: as §1, §2, §3

[6] = test system: Candida utilis (NRRLY 900); assay: Anticandidal broth microdilution assay; format: cell-based; conditions: Williopsis jadinii, RPMI, 37 °C, 24 h
Experimental: as §1, §2, §3

[7] = test system: MCF-7 human breast adenocarcinoma cell line; assay: MTT cytotoxicity assay; format: cell-based; conditions: Homo sapiens, MCF7, 24 h incubation, 3.9–500 µg/mL
Experimental: (§4) The tetrazolium salt, MTT (3-(4,5-dimethylthiazol-2-yl)-2,5-diphenyltetrazolium bromide), is used to measure the metabolic activity of viable cells. Tetrazolium salts are reduced to formazan by mitochondrial succinate dehydrogenase, an enzyme which is only active in cells with an intact metabolism. The formazan can be quantified photometrically and it is in correlation with the number of viable cells. Cytotoxicity was tested using the MCF-7 human breast adenocarcinoma cell line and NIH/3T3 mouse embryonic fibroblast cell line. NIH/3T3 and MCF-7 cells were incubated in RPMI medium (Hyclone, Thermo Scientific, Logan, UT, USA) supplemented with fetal calf serum (Hyclone), 100 IU/mL penicillin and […] (Hyclone) at 37 °C in a humidified atmosphere of 95% air and 5% CO2. MCF-7 and NIH/3T3 cells were seeded at 10,000 cells into each well of 96-well plates. After 24 h of incubating period, the culture mediums were removed and compounds were added to culture medium at 3.9–500 µg/mL concentrations. After 24 h of incubation, cytotoxicity tests were performed using the MTT assay, which measures mitochondrial activity, in MCF-7 and NIH/3T3 cells. Firstly, 20 µL MTT solution (5 mg/mL MTT powder in PBS) was added to each well. After 3 h incubation period at 37 °C, 5% CO2, the contents of the wells were removed and 100 µL DMSO was added to each well. Then, OD of the plate was read at 570 nm. Inhibition% was calculated for each concentration of the compounds. IC50 values were estimated by non-linear regression analysis. Cisplatin was used as a positive control. Stock solutions of compounds were prepared in DMSO and further dilutions were made with fresh culture medium. All experiments were performed in duplicate.

[8] = test system: NIH/3T3 mouse embryonic fibroblast cell line; assay: MTT cytotoxicity assay; format: cell-based; conditions: Mus musculus, NIH3T3, 24 h incubation, 3.9–500 µg/mL
Experimental: as §4

| Structure (SMILES) | MIC [1] [µg/mL] | MIC [2] [µg/mL] | MIC [3] [µg/mL] | MIC [4] [µg/mL] | MIC [5] [µg/mL] | MIC [6] [µg/mL] | melting point [°C] | IC50 [7] [µg/mL] | IC50 [8] [µg/mL] |
| --- | --- | --- | --- | --- | --- | --- | --- | --- | --- |
| O=[N+]([O-])c1cc(Cl)ccc1-c1ccc(C=NNc2nc(-c3ccccc3)cs2)o1 [Compound 8, 2-[2-((5-(4-Chloro-2-nitrophenyl)furan-2-yl)methylene)hydrazinyl]-4-phenylthiazole] | 500 (≈ 1180 µM) | 1000 (≈ 2350 µM) | 500 (≈ 1180 µM) | 1000 (≈ 2350 µM) | 500 (≈ 1180 µM) | 500 (≈ 1180 µM) | 194 to 195 | > 500 | > 500 |
| O=[N+]([O-])c1ccc(-c2csc(NN=Cc3ccc(-c4ccc(Cl)cc4[N+](=O)[O-])o3)n2)cc1 [Compound 9, 2-[2-((5-(4-Chloro-2-nitrophenyl)furan-2-yl)methylene)hydrazinyl]-4-(4-nitrophenyl)thiazole] | 500 (≈ 1060 µM) | 1000 (≈ 2130 µM) | 500 (≈ 1060 µM) | 500 (≈ 1060 µM) | 500 (≈ 1060 µM) | 500 (≈ 1060 µM) | 216 to 220 | 103 (≈ 218 µM) | 86.3 (≈ 184 µM) |
| O=[N+]([O-])c1cc(Cl)ccc1-c1ccc(C=NNc2nc(-c3ccc(F)cc3)cs2)o1 [Compound 10, 2-[2-((5-(4-Chloro-2-nitrophenyl)furan-2-yl)methylene)hydrazinyl]-4-(4-fluorophenyl)thiazole] | 500 (≈ 1130 µM) | 1000 (≈ 2260 µM) | 1000 (≈ 2260 µM) | 500 (≈ 1130 µM) | 500 (≈ 1130 µM) | 250 (≈ 565 µM) | 208 to 209 | 122 (≈ 275 µM) | 250 (≈ 565 µM) |
| O=[N+]([O-])c1cc(Cl)ccc1-c1ccc(C=NNc2nc(-c3ccc(Cl)cc3)cs2)o1 [Compound 11, 2-[2-((5-(4-Chloro-2-nitrophenyl)furan-2-yl)methylene)hydrazinyl]-4-(4-chlorophenyl)thiazole] | 500 (≈ 1090 µM) | 1000 (≈ 2180 µM) | 1000 (≈ 2180 µM) | 500 (≈ 1090 µM) | 500 (≈ 1090 µM) | 500 (≈ 1090 µM) | 186 to 187 | 125 (≈ 272 µM) | > 500 |
| O=[N+]([O-])c1cc(Cl)ccc1-c1ccc(C=NNc2nc(-c3ccc(Br)cc3)cs2)o1 [Compound 12, 4-(4-Bromophenyl)-2-[2-((5-(4-chloro-2-nitrophenyl)furan-2-yl)methylene)hydrazinyl]thiazole] | 500 (≈ 993 µM) | 500 (≈ 993 µM) | 1000 (≈ 1990 µM) | 500 (≈ 993 µM) | 1000 (≈ 1990 µM) | 1000 (≈ 1990 µM) | 199 to 201 | 500 (≈ 993 µM) | > 500 |
| COc1ccc(-c2csc(NN=Cc3ccc(-c4ccc(Cl)cc4[N+](=O)[O-])o3)n2)cc1 [Compound 14, 2-[2-((5-(4-Chloro-2-nitrophenyl)furan-2-yl)methylene)hydrazinyl]-4-(4-methoxyphenyl)thiazole] | 250 (≈ 550 µM) | 500 (≈ 1100 µM) | 500 (≈ 1100 µM) | 500 (≈ 1100 µM) | 250 (≈ 550 µM) | 250 (≈ 550 µM) | 206 to 207 | > 500 | > 500 |

Further compounds by falling MIC [1], results first:

| MIC [1] [µg/mL] | MIC [2] [µg/mL] | MIC [3] [µg/mL] | MIC [4] [µg/mL] | MIC [5] [µg/mL] | MIC [6] [µg/mL] | melting point [°C] | Structure (SMILES) | IC50 [7] [µg/mL] | IC50 [8] [µg/mL] |
| --- | --- | --- | --- | --- | --- | --- | --- | --- | --- |
| 250 (≈ 570 µM) | 500 (≈ 1140 µM) | 500 (≈ 1140 µM) | 1000 (≈ 2280 µM) | 500 (≈ 1140 µM) | 500 (≈ 1140 µM) | 166 to 167 | Cc1ccc(-c2csc(NN=Cc3ccc(-c4ccc(Cl)cc4[N+](=O)[O-])o3)n2)cc1 [Compound 13, 2-[2-((5-(4-Chloro-2-nitrophenyl)furan-2-yl)methylene)hydrazinyl]-4-(p-tolyl)thiazole] | 500 (≈ 1140 µM) | > 500 |
| 1 (≈ 3.27 µM) | 2 (≈ 6.53 µM) | 2 (≈ 6.53 µM) | 2 (≈ 6.53 µM) | 1 (≈ 3.27 µM) | 2 (≈ 6.53 µM) |  | OC(Cn1cncn1)(Cn1cncn1)c1ccc(F)cc1F [Fluconazole, reference compound] |  |  |

Reference: paper PMC6271239, “Synthesis and in Vitro Evaluation of New Nitro-Substituted Thiazolyl Hydrazone Derivatives as Anticandidal and Anticancer Agents” (Molecules, 2014)
